Test results published in patent publication US12371432B2, “Haloallylamine compounds and application thereof” (TransThera Sciences (Nanjing), Inc., priority 2019, dated 2025).
Where a name gives a salt, the structure may show the parent alone. Read-outs that look alike come from different tables or passages of the source.

How the values were obtained:
[1] = Rat blood-brain barrier evaluation; format: in vivo; conditions: SD rats, intragastric 10 mg/kg; for concentrations in brain tissues (in words): over time
Procedure: (1) Animal Administration and Sampling Method:
The study compound A1, the compound A41 and PXS-4728 were dissolved in normal saline to prepare solutions. The prepared solutions were separately administered by intragastric administration to SD rats at a dose of 10 mg/kg. […] At each time point, samples were collected from three SD rats.
On the day of the study, the animals were fixed to collect 0.15 mL of blood from the jugular vein at each set time point, and the whole blood samples were put into anticoagulation tubes containing EDTA-K2. After blood sampling was completed, heart perfusion was immediately performed for the animals, and following the heart perfusion, brain tissue samples were collected.
After the whole blood samples were centrifuged under the condition of 1,524 g for 10 min, top plasma samples were collected into sample tubes. The tissue samples were weighed, added with 20% of aqueous methanol solution at a weight-to-volume ratio of 1:5 (tissue:homogenate) and homogenized. The biological samples were stored at −40° C. to −20° C. for analysis.
(4) Sample Analysis Method:
(§1) Plasma sample: The samples to be tested were taken out of the refrigerator, naturally thawed at room temperature and then swirled for 5 min, and 20 μL of plasma sample was accurately pipetted into 1.5 mL centrifuge tubes. 100 μL of internal standard working solution (solution of 5 ng/mL verapamil and 50 ng/mL glibenclamide in acetonitrile) was added, and uniform mixing was performed. After 1 min of swirling, centrifugation was performed at 13,000 rpm for 8 min. 40 μL of supernate was accurately pipetted into a 96-well plate added with 160 μL water/well in advance. Uniform mixing was performed by swirling for 10 min, followed by LC-MS/MS assay.
as §1, with “Brain tissue” for “Plasma”, “50” for “20”, “250” for “100”, “30” for “40”, “150” for “160”
(5) Data Processing Method:
(§2) Analyst 1.6.2 from AB Sciex was used to output concentration results of tested compounds. Microsoft Excel was used to calculate parameters such as mean value, standard deviation and variation coefficient (excluding those outputted directly by Analyst 1.6.2).

[2] = Rat PK evaluation; format: in vivo; conditions: plasma, SD rats; for bioavailability: n=3, read-out: F % (absolute bioavailability); for clearance: n=3, read-out: Cl_obs iv (clearance rate) (converted); for Vd: n=3, read-out: Vz_obs iv (apparent volume of distribution); for Tmax: n=3, median, read-out: Tmax po (time of maximum observed plasma concentration)
Procedure: Animal Administration and Sample Collection:
The study compounds A1, A6, A32, A41 and A42 were each dissolved in normal saline to prepare solutions. The solutions of the compounds were separately administered to SD rats by intragastric administration at a dose of 5.0 mg/kg. Time points for blood collection were 15 min, 30 min, 1 h, 2 h, 4 h, 6 h, 8 h and 24 h.
The study compounds A1, A6, A32, A41 and A42 were each dissolved in normal saline to prepare solutions. The solutions of the compounds were separately administered to SD rats by intravenous push at a dose of 1.0 mg/kg. Time points for blood collection were 5 min, 15 min, 30 min, 1 h, 2 h, 4 h, 6 h, 8 h and 24 h.
Venous catheterization was performed the day before the administration. Subsequent to the administration, about 300 μL of blood was collected from the jugular vein and put into anticoagulation tubes containing EDTA-K2. Preparation was performed within 30 min after the blood collection. Plasma samples were obtained by centrifugation at 8,000 rpm for 6 min at 4° C., and were stored in a −80° C. refrigerator before plasma testing.
(1) the samples to be tested were taken out of the −80° C. refrigerator, naturally thawed at room temperature and then swirled for 5 min;
(2) 20 μL of plasma sample was accurately pipetted into a 1.5 mL centrifuge tube;
(3) 200 μL of internal standard working solution (solution of tolbutamide in methanol) with a concentration of 100 ng/mL was added, and uniform mixing was performed;
(4) after 5 min of swirling, centrifugation was performed at 12,000 rpm for 5 min;
(5) 50 μL of supernate was accurately pipetted into a 96-well plate added with 150 μL water/well in advance;
(6) uniform mixing was performed by swirling for 5 min, followed by LC-MS/MS assay.
as §2, with “1.6.3” for “1.6.2”, “1.6.3). Pharsight Phoenix 6.1 software NCA was adopted to calculate PK parameters (Tmax was median).” for “1.6.2).”

[3] = rat, plasma, oral, 0.167 h, read-out: Average Plasma concentration (N=3)
[4] = rat, plasma, oral, 1 h, read-out: Average Plasma concentration (N=3)
[5] = rat, plasma, oral, 6 h, read-out: Average Plasma concentration (N=3)
[6] = IV 1 mg/kg, n=3, read-out: AUCinf iv (area under plasma concentration-time curve 0-∞)
[7] = IV 1 mg/kg, n=3, read-out: tz1/2 iv (terminal half-life) (converted)
[8] = PO 5 mg/kg, n=3, read-out: AUCinf po (area under plasma concentration-time curve 0-∞)
[9] = PO 5 mg/kg, n=3, read-out: tz1/2 po (terminal half-life) (converted)

Compound	Average Brain tissue concentration (N=3) ([1]; 0.167 h)	Average Brain tissue concentration (N=3) ([1]; 1 h)	Average Brain tissue concentration (N=3) ([1]; 6 h)	concentrations in brain tissues (in words) [1]	concentration at 0.167 h [1, 3]	concentration at 1 h [1, 4]	concentration at 6 h [1, 5]	bioavailability ([2]; IV 1 mg/kg, PO 5 mg/kg)	AUC(0-inf) [2, 6]	clearance ([2]; IV 1 mg/kg)	Vd ([2]; IV 1 mg/kg)	half-life [2, 7]	Tmax ([2]; PO 5 mg/kg)	AUC(0-inf) [2, 8]	half-life [2, 9]	Mean brain tissue/plasma concentration ratio ([1]; 0.167 h)	concentration at 1 h ([1]; rat, brain, oral, 1 h, read-out: Average Brain tissue concentration (N=3))	concentration at 6 h ([1]; rat, brain, oral, 6 h, read-out: Average Brain tissue concentration (N=3))	Kp at 1 h ([1]; rat, brain/plasma, oral, 1 h, read-out: Mean brain tissue/plasma concentration ratio)	Kp at 6 h ([1]; rat, brain/plasma, oral, 6 h, read-out: Mean brain tissue/plasma concentration ratio)
CCN1CCc2nn(C/C(=C/F)CN)cc2C1=O [Compound A6 hydrochloride, (E)-2-(2-(aminomethyl)-3-fluoroallyl)-5-ethyl-2,5,6,7-tetrahydro-4H-pyrazolo[4,3-c]pyridin-4-one]								76.3%	445 ng·h/mL	37.8 mL/min/kg	2.38 L/kg	43.8 min	30 min	1700 ng·h/mL	65.4 min					
Cl.NC/C(=C\F)Cn1cc2c(c1Cl)CCN(C1CC1)C2=O [Compound A42 hydrochloride, (E)-2-(2-(aminomethyl)-3-fluoroallyl)-1-chloro-5-cyclopropyl-2,5,6,7-tetrahydro-4H-pyrrolo[3,4-c]pyridin-4-one]								151%	591 ng·h/mL	29.5 mL/min/kg	1.29 L/kg	31.8 min	60 min	4480 ng·h/mL	79.8 min					
Cl.NC/C(=C\F)Cn1cc2c(c1Br)CCN(C1CC1)C2=O [Compound A32 hydrochloride, (E)-2-(2-(aminomethyl)-3-fluoroallyl)-1-bromo-5-cyclopropyl-2,5,6,7-tetrahydro-4H-pyrrolo[3,4-c]pyridin-4-one]								173%	572 ng·h/mL	29.2 mL/min/kg	1.2 L/kg	28.8 min	15 min	4950 ng·h/mL	45 min					

Results, then the molecule that gave them:

Average Brain tissue concentration (N=3) ([1]; 0.167 h)	Average Brain tissue concentration (N=3) ([1]; 1 h)	Average Brain tissue concentration (N=3) ([1]; 6 h)	concentrations in brain tissues (in words) [1]	concentration at 0.167 h [1, 3]	concentration at 1 h [1, 4]	concentration at 6 h [1, 5]	bioavailability ([2]; IV 1 mg/kg, PO 5 mg/kg)	AUC(0-inf) [2, 6]	clearance ([2]; IV 1 mg/kg)	Vd ([2]; IV 1 mg/kg)	half-life [2, 7]	Tmax ([2]; PO 5 mg/kg)	AUC(0-inf) [2, 8]	half-life [2, 9]	Mean brain tissue/plasma concentration ratio ([1]; 0.167 h)	concentration at 1 h ([1]; rat, brain, oral, 1 h, read-out: Average Brain tissue concentration (N=3))	concentration at 6 h ([1]; rat, brain, oral, 6 h, read-out: Average Brain tissue concentration (N=3))	Kp at 1 h ([1]; rat, brain/plasma, oral, 1 h, read-out: Mean brain tissue/plasma concentration ratio)	Kp at 6 h ([1]; rat, brain/plasma, oral, 6 h, read-out: Mean brain tissue/plasma concentration ratio)	Compound
BLOQ	BLOQ	BLOQ	below the limit of detection	624 ng/mL	1750 ng/mL	39.7 ng/mL	61.9%	531 ng·h/mL	31.5 mL/min/kg	1.53 L/kg	33.6 min	60 min	1640 ng·h/mL	107 min						NC/C(=C\F)Cn1cc2c(=O)n(C3CC3)ccc2n1 [Compound A41, (E)-2-(2-(aminomethyl)-3-fluoroallyl)-5-cyclopropyl-2,5-dihydro-4H-pyrazolo[4,3-c]pyridin-4-one]
BLOQ			below the limit of detection	158 ng/mL	1300 ng/mL	80.7 ng/mL	87%	545 ng·h/mL	30.8 mL/min/kg	2.31 L/kg	52.2 min	120 min	2370 ng·h/mL	70.2 min	0←	39.1 ng/g	31.3 ng/g	0.03	0.39	NC/C(=C\F)Cn1cc2c(n1)CCN(C1CC1)C2=O [Compound A1, (E)-2-(2-(aminomethyl)-3-fluoroallyl)-5-cyclopropyl-2,5,6,7-tetrahydro-4H-pyrazolo[4,3-c]pyridin-4-one]
